According to patent publication US11780821B2, “Inhibitors of fibroblast activation protein” (Praxis Biotech LLC, priority 2017, dated 2023):
Like-named read-outs stand apart in the source and are kept apart here.

Legend:
[1] = biological target: T1, recombinant human FAPα (rhFAPα) (Homo sapiens, UniProt Q12884); assay: FAPα enzymatic endopeptidase (collagenase) activity assay; assay type: biochemical; conditions: DQ collagen substrate, read-out: rhFAPα (endo IC50)
T1 construct: purchased R&S system (so in the source)
T1 sequence (Q12884 1-760): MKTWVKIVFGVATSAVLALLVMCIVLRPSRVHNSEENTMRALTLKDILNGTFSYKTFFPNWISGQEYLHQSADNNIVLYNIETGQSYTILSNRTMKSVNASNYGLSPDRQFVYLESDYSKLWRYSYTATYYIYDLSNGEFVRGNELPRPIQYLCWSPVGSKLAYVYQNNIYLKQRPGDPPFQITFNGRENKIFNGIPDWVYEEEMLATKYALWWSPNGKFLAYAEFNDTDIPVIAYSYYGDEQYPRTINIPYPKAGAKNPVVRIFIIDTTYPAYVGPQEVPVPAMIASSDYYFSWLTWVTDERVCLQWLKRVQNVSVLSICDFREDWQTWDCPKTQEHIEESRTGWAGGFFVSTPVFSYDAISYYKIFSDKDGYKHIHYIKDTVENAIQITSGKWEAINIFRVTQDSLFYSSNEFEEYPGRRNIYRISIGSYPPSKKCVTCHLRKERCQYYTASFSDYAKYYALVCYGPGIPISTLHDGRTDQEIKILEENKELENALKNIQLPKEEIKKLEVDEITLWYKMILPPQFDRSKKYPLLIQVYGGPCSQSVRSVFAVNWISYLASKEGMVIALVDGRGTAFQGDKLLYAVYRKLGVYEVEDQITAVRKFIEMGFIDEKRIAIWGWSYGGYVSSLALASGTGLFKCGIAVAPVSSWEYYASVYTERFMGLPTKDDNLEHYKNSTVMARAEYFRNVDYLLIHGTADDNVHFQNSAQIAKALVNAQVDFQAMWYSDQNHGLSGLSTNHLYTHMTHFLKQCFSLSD
Description: FAPα enzymatic endopeptidase (collagenase) activity assay. […] All measurements were performed as a single point.

[2] = biological target: T2, circulating FAPα from hamster plasma (Mesocricetus auratus, UniProt A0ABM2XF29); assay: Ex vivo inhibition of circulating FAPα activity from hamster plasma; assay type: biochemical, Golden Syrian hamster
T2 sequence (A0ABM2XF29 24-761): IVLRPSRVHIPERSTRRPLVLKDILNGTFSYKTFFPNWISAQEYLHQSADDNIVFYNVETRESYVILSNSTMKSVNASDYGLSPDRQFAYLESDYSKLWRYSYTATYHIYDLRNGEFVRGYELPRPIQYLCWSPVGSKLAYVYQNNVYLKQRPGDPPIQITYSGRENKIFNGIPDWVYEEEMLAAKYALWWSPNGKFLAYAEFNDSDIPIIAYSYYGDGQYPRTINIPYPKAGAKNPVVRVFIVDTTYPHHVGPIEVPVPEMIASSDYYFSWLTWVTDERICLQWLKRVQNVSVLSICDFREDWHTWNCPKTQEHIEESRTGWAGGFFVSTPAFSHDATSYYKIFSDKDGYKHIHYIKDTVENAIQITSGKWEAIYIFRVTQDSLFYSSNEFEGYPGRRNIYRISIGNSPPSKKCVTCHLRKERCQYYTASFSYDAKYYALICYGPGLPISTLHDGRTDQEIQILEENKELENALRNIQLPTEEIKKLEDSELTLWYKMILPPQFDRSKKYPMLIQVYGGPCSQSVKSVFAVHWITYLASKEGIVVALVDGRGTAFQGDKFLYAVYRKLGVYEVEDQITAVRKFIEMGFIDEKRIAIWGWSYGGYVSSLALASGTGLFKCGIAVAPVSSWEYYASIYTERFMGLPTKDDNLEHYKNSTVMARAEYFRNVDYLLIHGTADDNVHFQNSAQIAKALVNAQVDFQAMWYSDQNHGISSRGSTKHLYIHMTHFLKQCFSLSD
Description: Male Golden Syrian hamsters were provided by National Laboratory Animal Center (NLAC) in Taiwan. The animals were maintained in a hygienic environment under controlled temperature (20-24° C.) and humidity (50%-80%) with 12 hours light/dark cycles. Free access to standard lab diet [MFG (Oriental Yeast Co., Ltd. Japan)] and autoclaved tap water were granted. All aspects of this work including housing, experimentation and disposal of animals were performed in general accordance with the “Guide for the Care and Use of Laboratory Animals: Eighth Edition” (National Academies Press, Washington, D.C., 2011). In addition, the animal care and use protocol was reviewed and approved by the IACUC at Pharmacology Discovery Services Taiwan, Ltd. Immediately after the sacrifice of hamsters, blood samples were collected via terminal cardiac puncture in tubes coated with EDTA-K2, mixed gently, then kept on ice and centrifuged at 2,500×g for 15 minutes at 4° C. After plasma separation, samples were stored at −80° C. in aliquots of 300 μL.
To assay exemplary compounds in hamster plasma, a similar protocol as described for human plasma was performed diluting thawed plasma 1:2 in cFAP buffer. In a 96-well black plate, 5 μl of diluted hamster plasma were mixed with 35 μl of the same buffer and 10 μl of exemplary test compounds at different concentrations or vehicle (DMSO).
Exemplary test compounds were allowed to interact with the enzyme for 15 minutes at 37° C. After pre-incubation, 50 μl of 200 μM PRXS-AMC substrate were added to the all mixtures. All reactions were carried out for 1 h at 37° C. protected from light. AMC release was detected measuring fluorescence at an excitation/emission wavelength of 380/460 nm using a Multifunction Microplate Reader. All measurements were carried out as single point.

[3] = biological target: T3, recombinant mouse PREP (rmPREP) (Mus musculus, UniProt Q9QUR6); assay: PREP enzymatic activity assay; assay type: biochemical; conditions: Z-Gly-Pro-AMC substrate
T3 construct: purchased R&S system (so in the source)
T3 sequence (Q9QUR6 whole entry): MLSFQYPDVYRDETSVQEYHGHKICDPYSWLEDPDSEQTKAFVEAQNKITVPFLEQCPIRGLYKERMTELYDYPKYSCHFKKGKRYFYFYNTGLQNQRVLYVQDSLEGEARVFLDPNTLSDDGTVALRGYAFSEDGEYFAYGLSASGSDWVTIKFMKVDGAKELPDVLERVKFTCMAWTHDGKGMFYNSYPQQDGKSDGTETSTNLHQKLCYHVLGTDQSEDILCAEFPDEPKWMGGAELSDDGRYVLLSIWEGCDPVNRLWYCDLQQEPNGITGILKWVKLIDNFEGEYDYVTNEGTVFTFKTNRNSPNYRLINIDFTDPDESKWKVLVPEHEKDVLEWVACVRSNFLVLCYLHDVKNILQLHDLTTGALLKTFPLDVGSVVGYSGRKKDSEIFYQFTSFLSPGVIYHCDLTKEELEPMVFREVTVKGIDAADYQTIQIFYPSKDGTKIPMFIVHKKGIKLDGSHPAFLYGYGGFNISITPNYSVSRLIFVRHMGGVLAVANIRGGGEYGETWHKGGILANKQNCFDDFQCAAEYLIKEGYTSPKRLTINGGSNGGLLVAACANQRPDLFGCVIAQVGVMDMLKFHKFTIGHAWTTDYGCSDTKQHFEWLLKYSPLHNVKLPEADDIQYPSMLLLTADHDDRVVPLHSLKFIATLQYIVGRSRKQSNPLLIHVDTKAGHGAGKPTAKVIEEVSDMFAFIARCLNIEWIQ
Description: 7-Amino-4-Methylcoumarin (AMC) release was detected by measuring fluorescence at Ex/Em 380/460 nm using a Multifunction Microplate Reader (Synergy 4, Biotek). All measurements were carried out in triplicate.

[4] = read-out: FAPα activity in hamster plasma (PRXS-AMC) IC50, PRXS-AMC substrate
[5] = PRXS-AMC substrate, read-out: FAPα activity in hamster plasma (PRXS-AMC) IC50

Compound | IC50 [1] [µM] | IC50 [2, 4] [µM] | IC50 [3] [µM] | IC50 [2, 5] [µM]
N#C[C@@H]1CC(F)(F)CN1C(=O)CNC(=O)c1ccncc1-c1ccccc1 [Compound 13, (S)—N-(2-(2-cyano-4,4-difluoropyrrolidin-1-yl)-2-oxoethyl)-3-phenylisonicotinamide] | < 1 | < 1 | > 10 | –
N#C[C@@H]1CC(F)(F)CN1C(=O)CNC(=O)c1c[nH]c(=O)c(-c2ccccc2)c1 [Compound 14, (S)—N-(2-(2-cyano-4,4-difluoropyrrolidin-1-yl)-2-oxoethyl)-6-oxo-5-phenyl-1,6-dihydropyridine-3-carboxamide] | < 1 | – | > 10 | –
N#C[C@@H]1CC(F)(F)CN1C(=O)CNC(=O)c1ccncc1C1CC1 [Compound 24, (S)—N-(2-(2-cyano-4,4-difluoropyrrolidin-1-yl)-2-oxoethyl)-3-cyclopropylisonicotinamide] | < 1 | < 1 | – | –
N#C[C@@H]1CC(F)(F)CN1C(=O)CNC(=O)c1ccncc1-c1ccc(F)cc1 [Compound 52, (S)—N-(2-(2-cyano-4,4-difluoropyrrolidin-1-yl)-2-oxoethyl)-3-(4-fluorophenyl)isonicotinamide] | – | < 1 | – | –
N#C[C@@H]1CC(F)(F)CN1C(=O)CNC(=O)c1ccncc1C1=CCNCC1 [Compound 105, (S)—N-(2-(2-cyano-4,4-difluoropyrrolidin-1-yl)-2-oxoethyl)-1′,2′,3′,6′-tetrahydro-[3,4′-bipyridine]-4-carboxamide 2,2,2-trifluoroacetate] | < 1 | < 1 | – | –
N#C[C@@H]1CC(F)(F)CN1C(=O)CNC(=O)c1c[nH]c(=O)cc1-c1ccc(F)cc1 [Compound 109, (S)—N-(2-(2-cyano-4,4-difluoropyrrolidin-1-yl)-2-oxoethyl)-4-(4-fluorophenyl)-6-oxo-1,6-dihydropyridine-3-carboxamide] | < 1 | – | – | < 1
C=C(c1ccccc1)c1cnccc1C(=O)NCC(=O)N1CC(F)(F)C[C@H]1C#N [Compound 122, (S)—N-(2-(2-cyano-4,4-difluoropyrrolidin-1-yl)-2-oxoethyl)-3-(1-phenylvinyl)isonicotinamide] | – | – | – | < 1
N#C[C@@H]1CC(F)(F)CN1C(=O)CNC(=O)c1c[nH]c(=O)c2ccccc12 [Example 1, (S)—N-(2-(2-cyano-4,4-difluoropyrrolidin-1-yl)-2-oxoethyl)-1-oxo-1,2-dihydroisoquinoline-4-carboxamide] | < 1 | – | 1 to 10 | –
